Tests used:
[1] = tested on: Rhodococcus erythropolis NCIMB 11540 cells; test: Enzymatic hydrolysis at different temperatures, Experiment 6.1; type: cell-based; conditions: after 2 h, 10 g/l, 5% DMSO
Procedure: In Experiment 6.1, the course of the reaction was compared at reaction temperatures of 30° C., 35° C. and 40° C. The batches were carried out on a 5 ml scale using a substrate concentration of 10 g/l of (R)-2-chloromandelonitrile. After complete reaction, the ee of the product was determined.
The biocatalyst was produced according to Example 4, Experiment 4.2 (OD546 8.4). In each case 4.75 ml of the cell suspension (resting cells, OD546 52) were used for the enzymatic reactions. Reactions of 50 mg of (R)-2-chloromandelonitrile (>99%) ([S]=60 mM, 10 g/l), dissolved in 250 μl of DMSO (5%) were carried out at 3 different temperatures (30° C., 35° C., 40° C.) in culture tubes at 150 rpm (parallel batches).
(§1) To monitor the conversion rate by means of HPLC, in each case 200 μl of sample were admixed with 200 μl of 1N HCl, centrifuged (5 min, 13 000 rpm) and diluted before measurement. After complete reaction, the ee of the product was determined.

[2] = tested on: Rhodococcus erythropolis NCIMB 11540 cells; test: Enzymatic hydrolysis using different cosolvents, Experiment 5.2; type: cell-based; conditions: 10 g/l, 30° C.
Procedure: Here, the solvents DMSO, EtOH and ^iPrOH were again used at a fraction of 5%; the substrate concentration was 10 g/l of (R)-2-chloromandelonitrile. The reaction was carried out on a 5 ml scale.
Production of the biocatalyst Example 4, Experiment 4.2 (OD546 8.4). In each case 4.75 ml of the cell suspension (resting cells, OD546 52) were used for the enzymatic reactions. Reactions of (R)-2-chloromandelonitrile (>99%) dissolved in DMSO, EtOH and i-PrOH were carried out in culture tubes at 150 rpm and 30° C. (parallel batches).
as §1, with “conversion,” for “reaction,”, “determined. • a. 50 mg of (R)-2-chloromandelonitrile, dissolved in 250 μl of DMSO ([S]=60 mM, 10 g/l, cosolvent: 5% DMSO)” for “determined.”

[3] = tested on: Rhodococcus erythropolis NCIMB 11540 cells; test: Enzymatic hydrolysis at different temperatures, Experiment 6.2; type: cell-based; conditions: after 2 h, 10 g/l, 3% DMSO
Procedure: In Experiment 6.2, the temperature was increased to 50° C.
The biocatalyst was produced according to Example 4, Experiment 4.3 (OD546 44). In each case 4.85 ml of the cell suspension (resting cells, OD546 44) were used for the enzymatic reactions. Reactions of 50 mg of (R)-2-chloromandelonitrile (>99%) ([S]=60 mM, 10 g/l), dissolved in 150 μl DMSO (3%) were carried out at 3 different temperatures (30° C., 40° C., 50° C.) in culture tubes at 150 rpm (parallel batches).
as §1

[4] = tested on: Rhodococcus erythropolis NCIMB 11540 cells; test: Enzymatic hydrolysis at different substrate concentrations, Experiment 4.3; type: cell-based; conditions: after 2 h, 3% DMSO, 40° C., resting cells
Procedure: In experiment 4.3, reactions were carried out using 10 g/l and 15 g/l of (R)-2-chloromandelonitrile. In addition, after complete conversion, the ee of the hydroxy acid formed was determined.
The biocatalyst was produced according to Example 1, Variant II, 2.75 l of the fermentation medium, harvest after 20 hours. The cells were resuspended in approximately 200 ml of buffer (resting cells, OD546 44). In each case 4.85 ml of this cell suspension were used for the enzymatic reactions.
Two different concentrations of (R)-2-chloromandelonitrile were studied in parallel batches. The reaction was started by adding 150 μl of substrate solution and was carried out in culture tubes in the shaking cabinet at 40° C. and 150 rpm. The conversion rate was monitored by means of HPLC. At complete conversion, the hydroxy acid was extracted after acidification and the ee was determined. • a. 50 mg of (R)-2-chloromandelonitrile, dissolved in 150 μl of DMSO ([S]=60 mM, 10 g/l, cosolvent: 3% DMSO)

[5] = tested on: Rhodococcus erythropolis NCIMB 11540 cells; test: Enzymatic hydrolysis at different substrate concentrations, Experiment 4.2; type: cell-based; conditions: 5% DMSO, 30° C., resting cells
Procedure: In experiment 4.2, the reaction was carried out using 2 different substrate concentrations (10 g/l, 20 g/l) on a 5 ml scale.
The biocatalyst was produced according to Example 1, Variant II, 2 l fermentation medium, harvest after 19 hours (OD546 8.4). The cells were resuspended in approximately 140 ml of buffer (resting cells, OD546 52). In each case 4.75 ml of this cell suspension were used for the enzymatic reactions.
Two different concentrations of (R)-2-chloromandelonitrile were studied in parallel batches. The reaction was started by adding 250 μl of substrate solution and was carried out in culture tubes in the shaking cabinet at 30° C. and 130 rpm. To monitor the conversion rate, in each case 200 μl were withdrawn and admixed with 200 μl of 1N HCl. After centrifugation (5 min, 13 000 rpm) and dilution, the conversion rates were determined by HPLC. • a. 50 mg of (R)-2-chloromandelonitrile, dissolved in 250 μl of DMSO ([S]=60 mM, 10 g/l, cosolvent: 5% DMSO)

[6] = tested on: Rhodococcus erythropolis NCIMB 11540 cells; test: Enzymatic hydrolysis using resting cells and lyophilized cells (Example 3); type: cell-based; conditions: approximately 20 mM substrate, 30° C.
Procedure: The biocatalyst was produced in a similar manner to Example 1, Variant I, 2 culture flasks. After 20 hours (OD546=3.5 and 1.8), cells were centrifuged off from 4 times 10 ml aliquots of fermentation broth and washed once with K/Na—PO4 buffer (pH 6.5, 50 mM). Two of the cell samples were lyophilized before activity determination, and the other two were used as resting cells.
The cells were resuspended in 1.8 ml K/Na—PO4 buffer (pH 6.5, 50 mM) (lyophilized cells were shaken for 1 h for rehydration). The reaction was started by adding 200 μl of a 200 mM substrate solution in DMSO (substrate concentration approximately 20 mM) and carried out at 30° C. and 130 rpm in the shaking cabinet. After 30 min, 60 min and 17 h, 200 μl were withdrawn and admixed with 200 μl of 1N HCl. After centrifugation (5 min, 13 000 rpm) and dilution, the conversion rates were determined by means of HPLC. Only the substrate and the two products were taken into consideration in this. The substrate used was (R)-2-chloromandelonitrile (ee>99%). The results are shown in Tab. 3.

[7] = biological target: T1, Rhodococcus erythropolis NCIMB 11540 nitrile hydratase (Rhodococcus erythropolis, UniProt P13448+P13449); test: Nitrile hydratase activity determination of crude lysates with methacrylonitrile; type: biochemical; conditions: 40 mM methacrylonitrile in PBS, 28° C.
T1 construct: made in house; host or cells: E. coli B BL21 (plasmid pMS470Nhase7.3 or pMSNhasetactac7.3), crude lysate
T1 sequence (P13448 1-207): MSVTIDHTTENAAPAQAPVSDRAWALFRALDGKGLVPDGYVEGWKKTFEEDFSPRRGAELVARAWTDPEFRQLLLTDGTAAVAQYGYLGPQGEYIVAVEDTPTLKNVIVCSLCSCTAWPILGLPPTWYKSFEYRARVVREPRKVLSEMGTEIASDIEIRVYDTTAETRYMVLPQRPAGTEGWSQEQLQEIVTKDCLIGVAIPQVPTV
T1 sequence (P13449 1-212): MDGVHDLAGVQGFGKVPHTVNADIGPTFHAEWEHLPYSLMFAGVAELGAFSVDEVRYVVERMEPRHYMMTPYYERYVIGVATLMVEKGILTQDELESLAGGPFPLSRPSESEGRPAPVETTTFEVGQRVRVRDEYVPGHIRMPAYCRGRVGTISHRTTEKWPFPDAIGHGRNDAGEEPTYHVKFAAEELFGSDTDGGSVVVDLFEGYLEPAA
Procedure: The E. coli B BL21 cells transformed by pMS470Nhase7.3 (or pMSNhasetactac7.3) were isolated on LB-ampicillin plates and an ONC of 100 ml of LB-ampicillin medium was inoculated with an individual colony. On the next morning a main culture consisting of 250 ml of LB-ampicillin medium was inoculated in a 1000 ml chicane flask to an OD600 of 0.01 to 0.03 (Beckmann Photometer). The growth temperature was controlled at 25° C., since at higher temperatures insoluble inclusion bodies are formed exclusively. After the induction density was reached (OD600=1 Beckmann Photometer), the cultures were induced by adding IPTG to give a concentration of 0.1 mM. In addition, the media were supplemented with 0.1 mM ammonium iron(III) citrate. After reaching an OD600>4, the cultures were harvested (centrifugation at approximately 3000-g for 15 min) and washed once with approximately 100 ml of PBS buffer. […]
Activity determination: crude lysates were diluted 1:10 with PBS buffer immediately before activity determination. […] After centrifugation (16 000·g, 10 minutes), the samples were analyzed spectrophotometrically at 224 nm (Perkin Elmer UV/VIS Spectrometer Lambda Bio). […]

[8] = lyophilized cells (19 mg/ml), 30 min
[9] = lyophilized cells (19 mg/ml), 60 min
[10] = lyophilized cells (19 mg/ml), 17 h
[11] = resting cells, 30 min, culture 1 (OD546 3.5)

N#C[C@H](O)c1ccccc1Cl [(R)-2-chloromandelonitrile]
hydroxy acid formed ([1]; T=30° C.): 42%
hydroxy acid formed ([1]; T=35° C.): 65%
hydroxy acid formed ([1]; T=40° C.): 86%
hydroxy acid formed ([2]; after 2 h, cosolvent 5% DMSO): approximately 40%
hydroxy acid formed ([2]; after 3 h, cosolvent 5% EtOH): 35%
hydroxy acid formed ([2]; after 3 h, cosolvent 5% i-PrOH): 8%
hydrolysis to form the hydroxy acid complete ([2]; after 19 h, cosolvent 5% EtOH): 94%
hydroxy acid formed ([2]; after 44 h, cosolvent 5% i-PrOH): 64%
hydroxy acid formed ([3]; T=30° C.): 42%
hydroxy acid formed ([3]; T=40° C.): 80%
hydroxy acid formed ([3]; T=50° C.): 92%
hydroxy acid formed ([4]; 10 g/l (60 mM)): 80%
hydroxy acid formed ([4]; 15 g/l (90 mM)): approximately 60%
hydroxy acid formed ([5]; after 2 h, 10 g/l (60 mM)): approximately 40%
hydroxy acid formed ([5]; after 18 h, 20 g/l (120 mM)): 36%
hydroxy acid formed ([5]; after 43 h, 20 g/l (120 mM)): 41%
Conversion rate CH (cyanohydrin) [6, 8]: 40%
Conversion rate HA (hydroxyamide) [6, 8]: <1%
Conversion rate CH (cyanohydrin) [6, 9]: 41%
Conversion rate HA (hydroxyamide) [6, 9]: 0%
Conversion rate CH (cyanohydrin) [6, 10]: 43%
Conversion rate HA (hydroxyamide) [6, 10]: <1%
Conversion rate CH (cyanohydrin) [6, 11]: 100%
Conversion rate HA (hydroxyamide) [6, 11]: 2%
Conversion rate HA (hydroxyamide) ([6]; resting cells, 60 min, culture 1 (OD546 3.5)): 4%
Conversion rate HA (hydroxyamide) ([6]; resting cells, 17 h, culture 1 (OD546 3.5)): 42%

C=C(C)C#N [methacrylonitrile]
typical activity of crude lysates ([7]; pMS470Nhase7.3 lysate): 100-250 U/ml
typical activity of crude lysates ([7]; pMSNhasetactac7.3 lysate): 350-500 U/ml
